The assay concerns the target Calpain-1 (Sus scrofa). Nature of the assay: In vitro inhibition of porcine erythrocyte calpain 1.

This note sets out measurements from BindingDB's records for doi:10.1021/jm00044a013 (Alkermes, 1994).

Broadly, the Ki is the dissociation constant of the complex between target and ligand, obtained from inhibition or displacement. A low value points to a stronger hold on the target.

`COC(=O)[C@H](C)NC(=O)C(=O)[C@@H](Cc1ccccc1)NC(=O)[C@H](CC(C)C)NC(=O)OCc1ccccc1` [(S)-2-[(R)-3-((S)-2-Benzyloxycarbonylamino-4-methyl-pentanoylamino)-2-oxo-4-phenyl-butyrylamino]-propionic acid methyl ester] yielded a Ki of 92 nM.
Compound `CCNC(=O)C(O)[C@@H](Cc1ccccc1)NC(=O)[C@H](CC(C)C)NC(=O)OCc1ccccc1` (stereo partly drawn) [[(S)-1-((R)-1-Benzyl-2-ethylcarbamoyl-2-hydroxy-ethylcarbamoyl)-3-methyl-butyl]-carbamic acid benzyl ester] showed a Ki above 350000 nM.
The value for `CC(C)C[C@H](NC(=O)OCc1ccccc1)C(=O)N[C@H](Cc1ccccc1)C(=O)C(=O)N[C@@H](C)C(=O)O` [(S)-2-[(R)-3-((S)-2-Benzyloxycarbonylamino-4-methyl-pentanoylamino)-2-oxo-4-phenyl-butyrylamino]-propionic acid] was 718 nM.
